Legend:
HCT-15 [1] = assay: Cytotoxicity against human HCT15 cells at 10 uM after 48 hrs by SRB assay; type: functional; details: HCT-15, 48 h, read-out: GI
SF-295 [2] = assay: Cytotoxicity against human SF295 cells at 10 uM after 48 hrs by SRB assay; type: functional; details: SF-295, 48 h, read-out: GI
A549 [3] = assay: Cytotoxicity against human A549 cells at 10 uM after 48 hrs by SRB assay; type: functional; details: A549, 48 h, read-out: GI
MCF7 [4] = assay: Cytotoxicity against human MCF7 cells at 10 uM after 48 hrs by SRB assay; type: functional; details: MCF7, 48 h, read-out: GI
HEp-2 [5] = assay: Cytotoxicity against human Hep2 cells at 10 uM after 48 hrs by SRB assay; type: functional; details: HEp-2, 48 h, read-out: GI
PC-3 [6] = assay: Cytotoxicity against human PC3 cells at 10 uM after 48 hrs by SRB assay; type: functional; details: PC-3, 48 h, read-out: GI
DU-145 [7] = assay: Cytotoxicity against human DU145 cells at 10 uM after 48 hrs by SRB assay; type: functional; details: DU-145, 48 h, read-out: GI
HL-60 [8] = assay: Cytotoxicity against human HL60 cells at 10 uM after 48 hrs by SRB assay; type: functional; details: HL-60, 48 h, read-out: GI
THP-1 [9] = assay: Cytotoxicity against human THP1 cells at 10 uM after 48 hrs by SRB assay; type: functional; details: THP-1, 48 h, read-out: GI
HCT-15 [10] = assay: Cytotoxicity against human HCT15 cells at 30 uM after 48 hrs by SRB assay; type: functional; details: HCT-15, 48 h, read-out: GI
SF-295 [11] = assay: Cytotoxicity against human SF295 cells at 30 uM after 48 hrs by SRB assay; type: functional; details: SF-295, 48 h, read-out: GI
A549 [12] = assay: Cytotoxicity against human A549 cells at 30 uM after 48 hrs by SRB assay; type: functional; details: A549, 48 h, read-out: GI
MCF7 [13] = assay: Cytotoxicity against human MCF7 cells at 30 uM after 48 hrs by SRB assay; type: functional; details: MCF7, 48 h, read-out: GI
HEp-2 [14] = assay: Cytotoxicity against human Hep2 cells at 30 uM after 48 hrs by SRB assay; type: functional; details: HEp-2, 48 h, read-out: GI
PC-3 [15] = assay: Cytotoxicity against human PC3 cells at 30 uM after 48 hrs by SRB assay; type: functional; details: PC-3, 48 h, read-out: GI
DU-145 [16] = assay: Cytotoxicity against human DU145 cells at 30 uM after 48 hrs by SRB assay; type: functional; details: DU-145, 48 h, read-out: GI
HL-60 [17] = assay: Cytotoxicity against human HL60 cells at 30 uM after 48 hrs by SRB assay; type: functional; details: HL-60, 48 h, read-out: GI
THP-1 [18] = assay: Cytotoxicity against human THP1 cells at 30 uM after 48 hrs by SRB assay; type: functional; details: THP-1, 48 h, read-out: GI
HCT-15 [19] = assay: Cytotoxicity against human HCT15 cells at 50 uM after 48 hrs by SRB assay; type: functional; details: HCT-15, 48 h, read-out: GI
SF-295 [20] = assay: Cytotoxicity against human SF295 cells at 50 uM after 48 hrs by SRB assay; type: functional; details: SF-295, 48 h, read-out: GI
A549 [21] = assay: Cytotoxicity against human A549 cells at 50 uM after 48 hrs by SRB assay; type: functional; details: A549, 48 h, read-out: GI
MCF7 [22] = assay: Cytotoxicity against human MCF7 cells at 50 uM after 48 hrs by SRB assay; type: functional; details: MCF7, 48 h, read-out: GI
HEp-2 [23] = assay: Cytotoxicity against human Hep2 cells at 50 uM after 48 hrs by SRB assay; type: functional; details: HEp-2, 48 h, read-out: GI
PC-3 [24] = assay: Cytotoxicity against human PC3 cells at 50 uM after 48 hrs by SRB assay; type: functional; details: PC-3, 48 h, read-out: GI
HL-60 [25] = assay: Cytotoxicity against human HL60 cells at 50 uM after 48 hrs by SRB assay; type: functional; details: HL-60, 48 h, read-out: GI
DU-145 [26] = assay: Cytotoxicity against human DU145 cells at 50 uM after 48 hrs by SRB assay; type: functional; details: DU-145, 48 h, read-out: GI
THP-1 [27] = assay: Cytotoxicity against human THP1 cells at 50 uM after 48 hrs by SRB assay; type: functional; details: THP-1, 48 h, read-out: GI
HCT-15 [28] = assay: Cytotoxicity against human HCT15 cells after 48 hrs by SRB assay; type: functional, cell-based; details: HCT-15, 48 h
A549 [29] = assay: Cytotoxicity against human A549 cells after 48 hrs by SRB assay; type: functional, cell-based; details: A549, 48 h
SF-295 [30] = assay: Cytotoxicity against human SF295 cells after 48 hrs by SRB assay; type: functional, cell-based; details: SF-295, 48 h
MCF7 [31] = assay: Cytotoxicity against human MCF7 cells after 48 hrs by SRB assay; type: functional, cell-based; details: MCF7, 48 h
HEp-2 [32] = assay: Cytotoxicity against human Hep2 cells after 48 hrs by SRB assay; type: functional, cell-based; details: HEp-2, 48 h
PC-3 [33] = assay: Cytotoxicity against human PC3 cells after 48 hrs by SRB assay; type: functional, cell-based; details: PC-3, 48 h
DU-145 [34] = assay: Cytotoxicity against human DU145 cells after 48 hrs by SRB assay; type: functional, cell-based; details: DU-145, 48 h
HL-60 [35] = assay: Cytotoxicity against human HL60 cells after 48 hrs by SRB assay; type: functional, cell-based; details: HL-60, 48 h
THP-1 [36] = assay: Cytotoxicity against human THP1 cells after 48 hrs by SRB assay; type: functional, cell-based; details: THP-1, 48 h

SMILES | inhibition of growth at 10 µM (HCT-15 [1]) | inhibition of growth at 10 µM (SF-295 [2]) | inhibition of growth at 10 µM (A549 [3]) | inhibition of growth at 10 µM (MCF7 [4]) | inhibition of growth at 10 µM (HEp-2 [5]) | inhibition of growth at 10 µM (PC-3 [6]) | inhibition of growth at 10 µM (DU-145 [7]) | inhibition of growth at 10 µM (HL-60 [8]) | inhibition of growth at 10 µM (THP-1 [9]) | inhibition of growth at 30 µM (HCT-15 [10]) | inhibition of growth at 30 µM (SF-295 [11]) | inhibition of growth at 30 µM (A549 [12]) | inhibition of growth at 30 µM (MCF7 [13]) | inhibition of growth at 30 µM (HEp-2 [14]) | inhibition of growth at 30 µM (PC-3 [15]) | inhibition of growth at 30 µM (DU-145 [16]) | inhibition of growth at 30 µM (HL-60 [17]) | inhibition of growth at 30 µM (THP-1 [18]) | inhibition of growth at 50 µM (HCT-15 [19]) | inhibition of growth at 50 µM (SF-295 [20]) | also measured
C=C(C)[C@@H]1CC[C@]2(C(=O)O)CC[C@]3(C)[C@H](CC[C@@H]4[C@@]5(C)CC[C@H](OCc6cn(-c7ccc(OC)cc7)nn6)C(C)(C)[C@@H]5CC[C@]43C)[C@@H]12 | 55% | 20% | 38% | 44% | 41% | 5% | 35% | 54% | 50% | 55% | 46% | 40% | 62% | 54% | 8% | 37% | 82% | 77% | 57% | 59% | inhibition of growth at 50 µM (A549 [21]): 51%; inhibition of growth at 50 µM (MCF7 [22]): 93%; inhibition of growth at 50 µM (HEp-2 [23]): 74%; inhibition of growth at 50 µM (PC-3 [24]): 52%; inhibition of growth at 50 µM (HL-60 [25]): 99%; inhibition of growth at 50 µM (DU-145 [26]): 53%; inhibition of growth at 50 µM (THP-1 [27]): 97%; IC50 (HCT-15 [28]): 8 µM; IC50 (A549 [29]): 50 µM; IC50 (SF-295 [30]): 44 µM; IC50 (MCF7 [31]): 14 µM; IC50 (HEp-2 [32]): 23 µM; IC50 (PC-3 [33]): 49 µM; IC50 (DU-145 [34]): 48 µM; IC50 (HL-60 [35]): 8 µM; IC50 (THP-1 [36]): 10 µM
C=C(C)[C@@H]1CC[C@]2(C(=O)O)CC[C@]3(C)[C@H](CC[C@@H]4[C@@]5(C)CC[C@H](OCc6cn(C7O[C@H](COC(C)=O)[C@H](OC(C)=O)[C@H](OC(C)=O)[C@H]7OC(C)=O)nn6)C(C)(C)[C@@H]5CC[C@]43C)[C@@H]12 (some centres not stated) | 39% | 8% | 6% | 35% | 25% | 5% | 8% | 62% | 50% | 51% | 20% | 10% | 44% | 41% | 32% | 20% | 66% | 61% | 63% | 39% | inhibition of growth at 50 µM (A549 [21]): 37%; inhibition of growth at 50 µM (MCF7 [22]): 52%; inhibition of growth at 50 µM (HEp-2 [23]): 58%; inhibition of growth at 50 µM (PC-3 [24]): 40%; inhibition of growth at 50 µM (HL-60 [25]): 74%; inhibition of growth at 50 µM (DU-145 [26]): 36%; inhibition of growth at 50 µM (THP-1 [27]): 72%; IC50 (HCT-15 [28]): 28 µM; IC50 (A549 [29]): > 50 µM; IC50 (SF-295 [30]): > 50 µM; IC50 (MCF7 [31]): 45 µM; IC50 (HEp-2 [32]): 40 µM; IC50 (PC-3 [33]): > 50 µM; IC50 (DU-145 [34]): > 50 µM; IC50 (HL-60 [35]): 5.5 µM; IC50 (THP-1 [36]): 50 µM

— ChEMBL document CHEMBL2380302, “Synthesis of 3-O-propargylated betulinic acid and its 1,2,3-triazoles as potential apoptotic agents” (Eur J Med Chem, 2013)
